Test results from the supplement of paper PMC12317010.
Structures can show the parent of a compound that is named as a salt.

Test: collision cross section in nitrogen (drift tube, single-field); higher = larger gas-phase ion size
[1] = ion type: [M+H], ion source: ESI, ion mode: Positive
[2] = ion type: [M+Na], ion source: ESI, ion mode: Positive
[3] = ion type: [M-H], ion source: ESI, ion mode: Negative
[4] = ion type: [M+H], ion source: APCI, ion mode: Positive
[5] = ion source: APCI, ion mode: Positive, ion type: [M]+ (permanent cation)
[6] = ion source: ESI, ion mode: Positive, ion type: [M]+ (permanent cation)
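Also: chemical standards at 10 µM analysed by drift tube IMS-QTOF MS in about 3.95 torr nitrogen, mean of duplicate injections differing ≤1%, mass error below 10 ppm.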

## O=S(=O)(c1ccc(OCc2ccccc2)cc1)c1ccccc1O [BPS-MPE4]
[1]
  collision cross section in nitrogen: 186.1 Å²
[2]
  collision cross section in nitrogen: 201.9 Å²
[3]
  collision cross section in nitrogen: 183.9 Å²

## O=C(O)C1(C(=O)Nc2ccc(Cl)cc2Cl)CC1 [Cyclanilide]
[3]
  collision cross section in nitrogen: 156.3 Å²

## COc1ccccc1N=Nc1c(S(=O)(=O)O)cc2cc(S(=O)(=O)O)cc(NC(C)=O)c2c1O [C.I. Acid Violet 12, disodium salt]
[3]
  collision cross section in nitrogen: 218 Å²

## CCc1cc(C2=C(C(=O)O)N(c3ccccc3C(F)(F)F)S(=O)(=O)c3ccccc32)cc2c1OCO2 [Fandosentan potassium salt]
[2]
  collision cross section in nitrogen: 216.3 Å²
[3]
  collision cross section in nitrogen: 204.7 Å²

## CCC(=O)OCC(COC(=O)CC)OC(=O)CC [Tripropionin]
[2]
  collision cross section in nitrogen: 161.2 Å²

## CN/C(=N\[N+](=O)[O-])NCc1cnc(Cl)s1 [Clothianidin]
[3]
  collision cross section in nitrogen: 151.8 Å²

## CCOC(=O)c1sc(N)nc1C(F)(F)F [Ethyl 2-amino-4-(trifluoromethyl)-1,3-thiazole-5-carboxylate]
[4]
  collision cross section in nitrogen: 155.3 Å²
[1]
  collision cross section in nitrogen: 146.4 Å²
[3]
  collision cross section in nitrogen: 140.9 Å²

## Cc1cc(Cl)ccc1N=CN(C)C [Chlordimeform]
[4]
  collision cross section in nitrogen: 145.6 Å²
[1]
  collision cross section in nitrogen: 146.4 Å²

## CC(C)c1ccc2c(c1)CC[C@H]1[C@](C)(CN)CCC[C@]21C [Dehydroabietylamine acetate]
[4]
  collision cross section in nitrogen: 188.9 Å²

## COCCOc1cc2cc(C(=O)NC3CCN(C(C)C)CC3)n(CC(=O)Nc3ccc(Cl)cn3)c2cn1
[4]
  collision cross section in nitrogen: 234.1 Å²
[1]
  collision cross section in nitrogen: 235.6 Å²
[2]
  collision cross section in nitrogen: 239.2 Å²
[3]
  collision cross section in nitrogen: 235.2 Å²

## CCCCCCCC(=O)N(C)C [N,N-Dimethyloctanamide]
[4]
  collision cross section in nitrogen: 146.6 Å²
[1]
  collision cross section in nitrogen: 146.8 Å²

## Clc1cc(Cl)c2c(c1)N=C1CCCCCN1C2
[4]
  collision cross section in nitrogen: 158.5 Å²
[1]
  collision cross section in nitrogen: 159.3 Å²

## CC(=O)CC(=O)Nc1ccc(S(=O)(=O)O)cc1 [Potassium 4-acetoacetylaminobenzenesulphonate]
[3]
  collision cross section in nitrogen: 159.1 Å²

## O=[N+]([O-])c1ccc(O)cc1C(F)(F)F [3-(Trifluoromethyl)-4-nitrophenol]
[3]
  collision cross section in nitrogen: 128.7 Å²

## CC(=O)NCc1ccccc1 [N-Benzylacetamide]
[3]
  collision cross section in nitrogen: 135.1 Å²

## c1ccc(-c2nnn[nH]2)cc1 [5-Phenyl-1H-tetrazole]
[3]
  collision cross section in nitrogen: 127.7 Å²

## CC(C)C[C@H]1C(=O)N2CCC[C@H]2[C@]2(O)O[C@](NC(=O)[C@@H]3C=C4c5cccc6[nH]c(Br)c(c56)C[C@H]4N(C)C3)(C(C)C)C(=O)N12 [Bromocriptine mesylate]
[4]
  collision cross section in nitrogen: 242.9 Å²
[1]
  collision cross section in nitrogen: 247.4 Å²
[2]
  collision cross section in nitrogen: 248.5 Å²
[3]
  collision cross section in nitrogen: 251.7 Å²

## Cc1ccc(S(=O)(=O)O)c(C)c1 [2,4-Dimethylbenzenesulfonic acid]
[3]
  collision cross section in nitrogen: 138.3 Å²

## C=C1C[C@H]2[C@@H]3C=C(C)C4=CC(=O)CC[C@]4(C)[C@H]3CC[C@]2(C)[C@@]1(OC(C)=O)C(C)=O [Melengestrol acetate]
[4]
  collision cross section in nitrogen: 201.5 Å²
[1]
  collision cross section in nitrogen: 200.3 Å²

## CCN(CCO)c1cccc(C)c1 [2-(N-Ethyl-m-toluidino)ethanol]
[4]
  collision cross section in nitrogen: 140 Å²
[1]
  collision cross section in nitrogen: 140.6 Å²

## Cc1ccccc1S(=O)(=O)O [2-Methylbenzenesulfonic acid]
[3]
  collision cross section in nitrogen: 131.9 Å²

## CN(C)c1ccc(C(=C2C=CC(=[N+](C)C)C=C2)c2ccc(N(C)C)cc2)cc1 [Gentian Violet]
[5]
  collision cross section in nitrogen: 205 Å²
[6]
  collision cross section in nitrogen: 205.8 Å²

## C[N+](C)(C)Cc1ccccc1 [Benzyltrimethylammonium chloride]
[6]
  collision cross section in nitrogen: 131.9 Å²

## CCCCc1oc2ccccc2c1C(=O)c1cc(I)c(OCCN(CC)CC)c(I)c1 [Amiodarone hydrochloride]
[4]
  collision cross section in nitrogen: 223.8 Å²
[1]
  collision cross section in nitrogen: 224.2 Å²
[2]
  collision cross section in nitrogen: 231.6 Å²
Ion type: [M+], ion source: APCI, ion mode: Positive
  collision cross section in nitrogen: 224 Å²

## C[CH2][Hg][S]c1ccccc1C(=O)O [Thimerosal]
[3]
  collision cross section in nitrogen: 146.9 Å²

## O=C(O)c1ccccc1-n1cc(C(=O)O)c(=O)c2cc(Nc3c(F)cc(F)cc3Cl)c(Cl)cc21 [AVE9423]
[4]
  collision cross section in nitrogen: 210.6 Å²
[1]
  collision cross section in nitrogen: 210.8 Å²
[2]
  collision cross section in nitrogen: 223.5 Å²
[3]
  collision cross section in nitrogen: 216.1 Å²

## CC(C)(c1cc(Cl)c(O)c(Cl)c1)c1cc(Cl)c(O)c(Cl)c1 [2,2',6,6'-Tetrachlorobisphenol A]
[3]
  collision cross section in nitrogen: 184.3 Å²

## CCCCC(CC)C(=O)OC(C)C (stereo unspecified) [Propan-2-yl 2-ethylhexanoate]
[3]
  collision cross section in nitrogen: 151.3 Å²

## CCCCOCCOCCOCCOCCO [3,6,9,12-Tetraoxahexadecan-1-ol]
[4]
  collision cross section in nitrogen: 157.1 Å²
[2]
  collision cross section in nitrogen: 160.4 Å²

## C=CCO/N=C(\CCC)C1C(=O)CC(C)(C)C(C(=O)OC)C1=O (stereo unspecified) [Alloxydim sodium]
[4]
  collision cross section in nitrogen: 175.7 Å²
[1]
  collision cross section in nitrogen: 175.7 Å²
[2]
  collision cross section in nitrogen: 179.4 Å²
[3]
  collision cross section in nitrogen: 177.7 Å²

## CCN(CC)CCOC(=O)c1ccc(N)cc1 [Procaine hydrochloride]
[4]
  collision cross section in nitrogen: 155.9 Å²
[1]
  collision cross section in nitrogen: 157.1 Å²

## CCCCCCCC/C=C\CCCCCCCC(=O)OC[C@@H](O)[C@H]1OC[C@H](O)[C@H]1O [Sorbitan, mono-(9Z)-9-octadecenoate]
[2]
  collision cross section in nitrogen: 211.8 Å²
[3]
  collision cross section in nitrogen: 207.7 Å²

## O=C1OC2(c3cc(Br)c(O)c(Br)c3Oc3c2cc(Br)c(O)c3Br)c2c(Cl)c(Cl)c(Cl)c(Cl)c21 [D&C Red 27]
[3]
  collision cross section in nitrogen: 226.8 Å²

## CCCCCCCCCCCCN1CCOCC1 [4-Dodecylmorpholine]
[4]
  collision cross section in nitrogen: 176.3 Å²
[1]
  collision cross section in nitrogen: 176.3 Å²

## O=C(Nc1ccc2ccccc2c1)c1ccc(Cl)cc1Cl [2,4-Dichloro-N-(naphthalene-2-yl)benzamide]
[1]
  collision cross section in nitrogen: 171.9 Å²
[2]
  collision cross section in nitrogen: 184.5 Å²

## O=C1CCCCCCCCCCCN1 [Azacyclotridecan-2-one]
[4]
  collision cross section in nitrogen: 148.2 Å²
[1]
  collision cross section in nitrogen: 148.8 Å²

## CCCCCCCCN1CCCC1=O [1-Octyl-2-pyrrolidone]
[4]
  collision cross section in nitrogen: 158.6 Å²
[1]
  collision cross section in nitrogen: 158.5 Å²

## O=C(O)CCCCCCCCC(=O)O [Decanedioic acid]
[3]
  collision cross section in nitrogen: 144.6 Å²

## CC(C)(Oc1ccc(CCNC(=O)c2ccc(Cl)cc2)cc1)C(=O)O [Bezafibrate]
[4]
  collision cross section in nitrogen: 178.5 Å²
[1]
  collision cross section in nitrogen: 177.8 Å²
[2]
  collision cross section in nitrogen: 189 Å²

## CCCCOC(=O)COC(=O)c1ccccc1C(=O)OCCCC
[2]
  collision cross section in nitrogen: 193.5 Å²

## CC[C@H]1OC(=O)[C@H](C)[C@@H](O[C@H]2C[C@@](C)(OC)[C@@H](O)[C@H](C)O2)[C@H](C)[C@@H](O[C@@H]2O[C@H](C)C[C@H](N(C)C)[C@H]2O)[C@](C)(O)C[C@@H](C)C(=O)[C@H](C)[C@@H](O)[C@]1(C)O [Erythromycin]
[4]
  collision cross section in nitrogen: 258.5 Å²
[1]
  collision cross section in nitrogen: 257.1 Å²
[2]
  collision cross section in nitrogen: 262.9 Å²

## CCCCCCCCCCCCCCOS(=O)(=O)O [Sodium myristyl sulfate]
[3]
  collision cross section in nitrogen: 173.4 Å²

## CCCCCCCCCCCCCC[n+]1ccccc1 [Tetradecylpyridinium bromide]
[5]
  collision cross section in nitrogen: 185.4 Å²
[6]
  collision cross section in nitrogen: 185.9 Å²
